The source of these data is patent publication US20140194353A1, “COMPOSITIONS AND METHODS FOR THE TREATMENT OF NERVOUS DISORDERS ASSOCIATED WITH DIABETES” (Joslin Diabetes Center, Inc., priority 2010, published 2014).

In assay [1] the test system is cultured neurons. Nature of the assay: Pharmacological inhibition of insulin signaling pathways, cholesterol synthetic gene expression. The class given is cell-based, mouse.
The test system of assay [2] is STZ-diabetic mice. Nature of the assay: Food intake after ICV injection in STZ-diabetic mice. As to conditions: insulin ICV injection. The assay is classed as in vivo, mouse. An excerpt: To assess the effects of insulin, we directly administered insulin into the cerebral ventricles of STZ-induced diabetic mice by 3 injections of insulin into a catheter placed in the lateral ventricle. Briefly, seven-week-old C57Bl/6 mice were placed in a stereotactic device under anesthesia, and a 26-gauge guide cannula (Plastics One Inc., Roanoke, Va.) was inserted into the right lateral cerebral ventricle (1.0 mm posterior, 1.0 mm lateral, and 2.0 mm ventral to the bregma). A dummy stylet cannula was inserted into each cannula until used. After a 1 week recovery, mice received a single i.p. injection of STZ to induce diabetes. Twelve days later, the mice received three ICV injections of insulin (3 mU in 2 μL) or the same volume of PBS (9 AM, 7 PM and 9 AM the following day) through an internal cannula using a Hamilton microsyringe. Food intake was measured immediately before the ICV injection. Four hours after the last injection, blood glucose levels were measured, and the hypothalami collected.

Assay [3] deals with primary mouse cultured cortical neurons and glia. Nature of the assay: Insulin stimulation of primary cultured cortical neurons and glia, qPCR of cholesterologenic genes. The assay is classed as cell-based. As for the experimental part: (§1) For qPCR, RNA was isolated using an RNeasy kit (Qiagen). As a template, 1 μg (for tissue) or 0.2 μg (for glia and neurons) of total RNA was reverse-transcribed in 50 μl using a High Capacity cDNA Reverse Transcription Kit (Applied Biosystems) according to the manufacturer's instructions. Three microliters of diluted (1/4) reverse transcription reaction was amplified with specific primers (300 nM each) in a 25 μl PCR with a SYBR Green PCR Master Mix (Applied Biosystems). Analysis of gene expression was done in the ABI PRISM 7000 sequence detector with an initial denaturation at 95° C. for 10 minutes followed by 40 PCR cycles, each cycle consisting of 95° C. for 15 seconds and 60° C. for 1 minute, and SYBR Green fluorescence emissions were monitored after each cycle. For each gene, mRNA expression was calculated relative to Tbp (mouse) or ribosomal 18S (human) expression as an internal control.
To dissect the cell type and factors regulating the changes in cholesterol biosynthesis, neuron and glial cells (astrocytes) were isolated and cultured from the cortices of 16-day-old C57Bl/6 mouse embryos and 1-day-old neonates, respectively. Briefly, the cerebral cortex was dissected from 0-1 day old for glia and day 16 embryonic C57Bl/6 mice under aseptic conditions. Large blood vessels were carefully removed under the microscope. […]
A general note: In qPCR the cycle at which signal appears reflects the starting amount.

The test system of assay [4] is STZ-diabetic mice. Nature of the assay: Blood glucose levels in STZ-diabetic mice. The class given is in vivo, mouse. As for the experimental part:
(§2) For STZ-induced diabetes and systemic insulin therapy experiments, 7-week-old C57Bl/6 mice were treated with a single intraperitoneal (i.p.) injection (200 μg/g body weight) of STZ (Sigma). After 2 days, the mice were separated into two groups. Half remained untreated, and the other half were treated with subcutaneous insulin pellets (LinShin, Toronto, Canada) for one week to control blood glucose levels. For phlorizin (PHZ) treatment, 8-week-old C57Bl/6 mice were treated with STZ. PHZ (Sigma) was dissolved in a solution containing 10% ethanol, 15% DMSO, and 75% saline and was injected subcutaneously (0.4 g/kg) twice daily for 10 days starting 8 days after the STZ injection. Control mice were injected with the same volume of vehicle.
To determine whether hyperglycemia or insulin insufficiency was predominantly responsible for the above-observed suppression of cholesterol synthesis pathway in the diabetic mouse brain, we treated the STZ-induced diabetic mice with phlorizin (PHZ), a flavonoid which can decrease blood glucose levels by inhibition of renal glucose transport without restoring insulin secretion using the methods disclosed in Example 1. Additionally, phlorizin (PHZ) treatment was performed using 8-week-old C57Bl/6 mice previously treated with STZ. […] Control mice were injected with the same volume of vehicle. mRNA levels were then assessed by qPCR as disclosed in Example 1. […]

Assay [5] concerns SREBP-2 and its downstream cholesterologenic genes in the hypothalamus. Nature of the assay: qPCR of Srebf2 and cholesterologenic genes in hypothalami of STZ-diabetic mice. The assay is classed as in vivo, mouse. As for the experimental part:
as §2
as §1, with “Three microliters of diluted (1/4) reverse transcription reaction was amplified with specific primers (300 nM each) in a 25 μl PCR with a SYBR Green PCR Master Mix (Applied Biosystems).” left out
To determine whether hyperglycemia or insulin insufficiency was predominantly responsible for the above-observed suppression of cholesterol synthesis pathway in the diabetic mouse brain, we treated the STZ-induced diabetic mice with phlorizin (PHZ), a flavonoid which can decrease blood glucose levels by inhibition of renal glucose transport without restoring insulin secretion using the methods disclosed in Example 1. […] Control mice were injected with the same volume of vehicle. mRNA levels were then assessed by qPCR as disclosed in Example 1. […]

Assay [6] concerns Pomc, Agrp, Npy expression. The assay is described as follows: qPCR of neuropeptides regulating appetite in hypothalamus after insulin ICV injection. The assay is classed as in vivo, mouse. The settings on record: STZ-diabetic mice. As for the experimental part:
as §1
To assess the effects of insulin, we directly administered insulin into the cerebral ventricles of STZ-induced diabetic mice by 3 injections of insulin into a catheter placed in the lateral ventricle. […] Food intake was measured immediately before the ICV injection. Four hours after the last injection, blood glucose levels were measured, and the hypothalami collected.

In the case of `Cn1cc(C2=C(c3ccc(Cl)cc3Cl)C(=O)NC2=O)c2ccccc21` [SB216763], the “expression of cholesterol synthetic genes” value in assay [1] (GSK3 inhibitor treatment, mimicked insulin's effects) is reported as “broad increase in expression of cholesterol synthetic genes”.
With insulin, the “hyperphagia induced by STZ diabetes (food intake)” value in assay [2] is “partly reversed the hyperphagia”. Further, in assay [3] (insulin 10-100 nM, 6 hours, qPCR), the “stimulation of expression of all cholesterologenic genes” value fell in the range of 30 to 270%. For the same compound, the “cholesterol synthetic gene expression” value in assay [3] (primary cultured glia and neurons, 18 days in vitro, insulin 6 h) is given as “induces cholesterol synthetic gene expression”. For the same compound, the blood glucose levels result in assay [4] (three ICV injections of insulin (3 mU), 4 hours after last injection) was “did not affect blood glucose levels”. Further, the “changes in cholesterologenic genes in hypothalamus of diabetic mice” value in assay [5] (subcutaneous insulin pellets for one week, qPCR) is on record as “reversed”. Moreover, the “suppression of SREBP-2 pathway in the hypothalamus” value in assay [5] (three ICV injections of insulin (3 mU in 2 μL), 4 hours after last injection) is recorded as “almost completely normalized”. The “expression of neuropeptides involved in feeding behavior (Pomc, Agrp, Npy)” value in assay [6] is “partially normalized”.
As for `O=C(CCc1ccc(O)cc1)c1c(O)cc(O)cc1O[C@@H]1O[C@H](CO)[C@@H](O)[C@H](O)[C@H]1O` [PHZ, phlorizin], the “hyperglycemia (blood glucose)” value in assay [4] (PHZ 0.4 g/kg s.c. twice daily for 10 days) is given as “efficiently normalized hyperglycemia”. Further, the “suppression of SREBP-2 and its downstream genes in the hypothalamus” value in assay [5] (PHZ 0.4 g/kg s.c. twice daily for 10 days, qPCR) is on record as “did not, however, reverse suppression”.
As for `N#CC(=C(/N)Sc1ccccc1N)/C(C#N)=C(\N)Sc1ccccc1N` [U0126], the “insulin's effect on Hmgcr induction” value in assay [1] (inhibitor given prior to insulin stimulation) is “partially suppressed”.
